Laboratory results reported in patent US5508385A, “Tripeptide derivatives containing pyroglutamic acid residue” (Nitto Boseki Co., Ltd., priority 1990, dated 1996).
Structures can show the parent of a compound that is named as a salt. Where a SMILES comes first, the peptide text is derived from it. [ ]: non-standard residue; d: D form. pGlu = O=C1CC[C@@H](C(=O)O)N1

Each molecule was assayed against plasmin (Homo sapiens, UniProt P00747) (assay: Inhibitory activity against plasmin (synthetic substrate PS-994)). Conditions: Table 3; substrate PS-994, pH 7.8, 37° C.
Sequence of plasmin (P00747 97-810): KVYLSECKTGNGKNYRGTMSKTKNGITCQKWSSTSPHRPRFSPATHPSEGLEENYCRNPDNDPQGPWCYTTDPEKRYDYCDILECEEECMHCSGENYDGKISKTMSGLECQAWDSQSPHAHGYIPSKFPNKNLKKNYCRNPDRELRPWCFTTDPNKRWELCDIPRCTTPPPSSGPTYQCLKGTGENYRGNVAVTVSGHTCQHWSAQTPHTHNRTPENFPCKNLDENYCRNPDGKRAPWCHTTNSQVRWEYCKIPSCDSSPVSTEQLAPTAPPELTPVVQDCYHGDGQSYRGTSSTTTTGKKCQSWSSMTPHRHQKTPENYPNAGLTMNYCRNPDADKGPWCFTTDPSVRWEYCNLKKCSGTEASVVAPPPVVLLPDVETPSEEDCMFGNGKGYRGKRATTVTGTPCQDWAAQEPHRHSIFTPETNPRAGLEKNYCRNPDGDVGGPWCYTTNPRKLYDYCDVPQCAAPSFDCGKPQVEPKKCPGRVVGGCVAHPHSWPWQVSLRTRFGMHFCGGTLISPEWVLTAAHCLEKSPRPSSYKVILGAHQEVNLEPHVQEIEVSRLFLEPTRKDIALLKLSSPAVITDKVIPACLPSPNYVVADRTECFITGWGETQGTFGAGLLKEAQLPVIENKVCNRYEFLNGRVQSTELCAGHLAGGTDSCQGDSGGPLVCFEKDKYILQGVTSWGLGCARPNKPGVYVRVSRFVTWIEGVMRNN
Format: biochemical
Description: As a stopping (color forming) solution, there was used the one from the kit of Sankyo Color Test in the case of CHA type substrate. Enzyme reactions were carried out at 37° C.
To 0.4 ml of buffer solution (150 mM sodium chloride aqueous solution containing 100 mM Tris, pH 7.8) is added an aqueous solution (0.1 ml) of the inhibitor having various concentrations. The mixture is heated for 5 minutes. After 0.2 ml of plasmin solution is added thereto, the mixture is reacted for 5 minutes. […] After completion of the reaction, 2.0 ml of the stopping color forming solution is added.
“N-benzyloxycarbonyl-D-pyroglutamyl-L-prolyl-L-argininal hydrochloride [Example 6]” showed an IC50 of 4.6 µM. Work on “N-benzyloxycarbonyl-L-pyroglutamyl-L-alanyl-L-argininal hydrochloride [Example 2]” yielded an IC50 of 7.2 µM. In the case of “N-benzyloxycarbonyl-D-pyroglutamyl-L-leucyl-L-argininal hydrochloride [Example 7]”, the IC50 is reported as 2.8 µM. Molecule `N=C(N)NCCC[C@@H](C=O)NC(=O)[C@@H]1CCCN1C(=O)[C@@H]1CCC(=O)N1` [Example 13, L-pyroglutamyl-L-prolyl-L-argininal 1/2 sulfate] ([pGlu]-Pro-Arg-aldehyde) has an IC50 of 1.4 µM. “N-benzyloxycarbonyl-L-pyroglutamyl-L-prolyl-L-argininal hydrochloride [Example 1]” showed an IC50 of 3.2 µM. “N-benzyloxycarbonyl-L-pyroglutamyl-L-phenylalanyl-L-argininal hydrochloride [Example 3]” showed an IC50 of 1.1 µM. “N-benzyloxycarbonyl-D-pyroglutamyl-L-phenylalanyl-L-argininal hydrochloride [Example 9]” gave an IC50 of 1.3 µM.

The molecules below were run against thrombin (Bos taurus, UniProt P00735) (assay: Inhibitory activity against thrombin (synthetic substrate PS-915)). Conditions: Table 3; substrate PS-915, pH 8.5, 37° C.
Format: biochemical
Source text: (§1) As synthetic substrates for examining the activity of inhibitor for inhibiting digestion of the substrates with enzyme, there were used PS-994 (H-D-Lys(Tos)-Phe-Lys-CHA.2HCl; manufactured by Nitto Boseki Co., Ltd.) for plasmin, PS-915 (H-D-Phe-Pro-Arg-CHA.2HCl; manufactured by Nitto Boseki Co., Ltd.) for thrombin and trypsin; PS-2000 (Z-D-Lys(HCO)-Gly-Arg-CHA.HCl; manufactured by Nitto Boseki Co., Ltd.) for factor Xa; S-2302 (H-D-Pro-Phe-Arg-pNA; manufactured by Kabi Co., Ltd.) for kallikrein; and [drawing 2] manufactured by Nitto Boseki Co., Ltd.) for urokinase.
(§2) As plasmin, thrombin, trypsin, factor Xa, kallikrein and urokinase, there were used 0.3 CU/ml of standard plasmin from Sankyo Color Test α2 -PI Measurement Kit, 1.2 NIH U/ml of thrombin from Sankyo Color Test AT-III Measurement Kit, 2 μg/ml of trypsin of Code 3703 of Worthington, 0.25 U/ml of human factor Xa manufactured by Boehringer Mannheim, 0.12 U/ml of human serum kallikrein manufactured by Kabi Co., Ltd. and 1000 U/ml of Urokinase 60000 (60,000 U/vial) manufactured by Mochida Pharmaceutical Co., Ltd., respectively. As a stopping (color forming) solution, there was used the one from the kit of Sankyo Color Test in the case of CHA type substrate. Enzyme reactions were carried out at 37° C.
To 0.4 ml of buffer solution (150 mM sodium chloride aqueous solution containing 150 mM Tris, pH 8.5) is added an aqueous solution (0.1 ml) of the inhibitor having various concentrations. The mixture is heated for 5 minutes. After 0.2 ml of thrombin solution is added thereto, the mixture is reacted for 5 minutes. Then 0.1 ml of PS-915 solution (10 mM) is added followed by reaction for 5 minutes. Thereafter, 2 ml of the stopping color forming solution is added. After allowing to stand for 10 minutes, absorbance is measured at 700 nm and IC50 is determined according to the method described above.
“N-benzyloxycarbonyl-D-pyroglutamyl-L-prolyl-L-argininal hydrochloride [Example 6]” gave an IC50 of 22 µM. Work on “N-benzyloxycarbonyl-L-pyroglutamyl-L-alanyl-L-argininal hydrochloride [Example 2]” yielded an IC50 of 5.9 µM. For “N-benzyloxycarbonyl-D-pyroglutamyl-L-leucyl-L-argininal hydrochloride [Example 7]”, the IC50 was > 100 µM. In the case of `N=C(N)NCCC[C@@H](C=O)NC(=O)[C@@H]1CCCN1C(=O)[C@@H]1CCC(=O)N1` [Example 13, L-pyroglutamyl-L-prolyl-L-argininal 1/2 sulfate] ([pGlu]-Pro-Arg-aldehyde), the IC50 is reported as 22 µM. “N-benzyloxycarbonyl-L-pyroglutamyl-L-prolyl-L-argininal hydrochloride [Example 1]” was tested, and the IC50 was 0.056 µM. “N-benzyloxycarbonyl-L-pyroglutamyl-L-phenylalanyl-L-argininal hydrochloride [Example 3]” showed an IC50 of 35 µM. With “N-benzyloxycarbonyl-D-pyroglutamyl-L-phenylalanyl-L-argininal hydrochloride [Example 9]” the IC50 was > 100 µM.

Each molecule was assayed against T1, trypsin (Bos taurus, UniProt P00760) (assay: Inhibitory activity against trypsin (synthetic substrate PS-915)). Conditions: Table 3; substrate PS-915, pH 8.0, 37° C.
T1 construct: purchased Worthington Code 3703
T1 sequence (P00760 24-246): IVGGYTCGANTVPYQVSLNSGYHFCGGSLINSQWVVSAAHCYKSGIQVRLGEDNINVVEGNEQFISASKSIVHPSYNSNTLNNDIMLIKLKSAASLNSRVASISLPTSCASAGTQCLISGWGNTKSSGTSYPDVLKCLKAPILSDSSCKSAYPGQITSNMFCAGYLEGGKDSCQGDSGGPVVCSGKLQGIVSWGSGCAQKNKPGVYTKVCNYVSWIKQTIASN
Format: biochemical
Source text: as §1, §2
To 0.5 ml of buffer solution (150 mM sodium chloride aqueous solution containing 150 mM Tris, pH 8.0) is added 0.1 ml of an aqueous solution of the inhibitor. After the mixture is heated for 5 minutes, 0.1 ml of trypin solution is added thereto. Further 0.1 ml of PS-915 solution (10 mM) is added followed by reaction for 5 minutes. Thereafter, 2 ml of the stopping color forming solution [containing 2.5 mg/ml of soybean trypsin inhibitor (manufactured by Sigma Co., No. T-9003)] is added. After allowing to stand for 10 minutes, absorbance is measured at 700 nm and IC50 is determined according to the method described above.
Work on “N-benzyloxycarbonyl-D-pyroglutamyl-L-prolyl-L-argininal hydrochloride [Example 6]” yielded an IC50 of 0.062 µM. Molecule “N-benzyloxycarbonyl-L-pyroglutamyl-L-alanyl-L-argininal hydrochloride [Example 2]” has an IC50 of 0.0074 µM. “N-benzyloxycarbonyl-D-pyroglutamyl-L-leucyl-L-argininal hydrochloride [Example 7]” was tested, and the IC50 was 0.43 µM. In the case of `N=C(N)NCCC[C@@H](C=O)NC(=O)[C@@H]1CCCN1C(=O)[C@@H]1CCC(=O)N1` [Example 13, L-pyroglutamyl-L-prolyl-L-argininal 1/2 sulfate] ([pGlu]-Pro-Arg-aldehyde), the IC50 is reported as 0.02 µM. Work on “N-benzyloxycarbonyl-L-pyroglutamyl-L-prolyl-L-argininal hydrochloride [Example 1]” yielded an IC50 of 0.0062 µM. For “N-benzyloxycarbonyl-L-pyroglutamyl-L-phenylalanyl-L-argininal hydrochloride [Example 3]”, the IC50 was 0.069 µM. “N-benzyloxycarbonyl-D-pyroglutamyl-L-phenylalanyl-L-argininal hydrochloride [Example 9]” was tested, and the IC50 was 1 µM.

The molecules below were run against T2, urokinase (Homo sapiens, UniProt P00749) (assay: Inhibitory activity against urokinase (synthetic substrate MUK-34)). Conditions: Table 3; substrate MUK-34, pH 8.20, 37° C.
T2 construct: purchased Mochida Pharmaceutical Co., Ltd. Urokinase 60000 (60,000 U/vial)
Format: biochemical
Source text: as §1, §2
To 0.3 ml of buffer solution (150 mM sodium chloride aqueous solution containing 50 mM Tris, pH 8.20) is added 0.1 ml of an aqueous solution of the inhibitor having various concentrations. After the mixture is heated for 5 minutes, 0.1 ml of urokinase solution (150 mM sodium chloride aqueous solution containing 50 mM Tris and 0.1% BSA, pH 8.20) is added thereto and the mixture is reacted for 5 minutes. Then 10 mM MUK-34 aqueous solution (0.1 ml) is added to the mixture. After reacting for 5 minutes, 10% acetic acid aqueous solution (2.0 ml) is added to terminate the reaction. Absorbance is measured at 405 nm and IC50 is determined according to the method described above.
In the case of “N-benzyloxycarbonyl-D-pyroglutamyl-L-prolyl-L-argininal hydrochloride [Example 6]”, the IC50 is reported as 1.1 µM. “N-benzyloxycarbonyl-L-pyroglutamyl-L-alanyl-L-argininal hydrochloride [Example 2]” gave an IC50 of 7.6 µM. Molecule “N-benzyloxycarbonyl-D-pyroglutamyl-L-leucyl-L-argininal hydrochloride [Example 7]” has an IC50 of 30 µM. `N=C(N)NCCC[C@@H](C=O)NC(=O)[C@@H]1CCCN1C(=O)[C@@H]1CCC(=O)N1` [Example 13, L-pyroglutamyl-L-prolyl-L-argininal 1/2 sulfate] ([pGlu]-Pro-Arg-aldehyde) was tested, and the IC50 was 0.68 µM. “N-benzyloxycarbonyl-L-pyroglutamyl-L-prolyl-L-argininal hydrochloride [Example 1]” gave an IC50 of 22 µM. “N-benzyloxycarbonyl-L-pyroglutamyl-L-phenylalanyl-L-argininal hydrochloride [Example 3]” was tested, and the IC50 was 76 µM. “N-benzyloxycarbonyl-D-pyroglutamyl-L-phenylalanyl-L-argininal hydrochloride [Example 9]” was tested, and the IC50 was 40 µM.

What follows are molecules tested against T3, human serum kallikrein (Homo sapiens, UniProt P03952) (assay: Inhibitory activity against kallikrein (synthetic substrate S-2302)). Conditions: Table 2; substrate S-2302, pH 8.0, 37° C.; read-out: IC50 of Known Compound, Kallikrein.
T3 construct: purchased Kabi Co., Ltd
T3 sequence (P03952 391-638 limits assumed): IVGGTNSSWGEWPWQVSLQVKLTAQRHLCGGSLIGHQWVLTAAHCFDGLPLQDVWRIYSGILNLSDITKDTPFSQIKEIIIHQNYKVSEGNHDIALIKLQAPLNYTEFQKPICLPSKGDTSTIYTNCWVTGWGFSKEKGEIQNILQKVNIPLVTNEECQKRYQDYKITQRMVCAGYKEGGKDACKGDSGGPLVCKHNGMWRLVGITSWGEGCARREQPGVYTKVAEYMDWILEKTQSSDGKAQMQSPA
T3 sequence (P03952 20-390 partner limits assumed): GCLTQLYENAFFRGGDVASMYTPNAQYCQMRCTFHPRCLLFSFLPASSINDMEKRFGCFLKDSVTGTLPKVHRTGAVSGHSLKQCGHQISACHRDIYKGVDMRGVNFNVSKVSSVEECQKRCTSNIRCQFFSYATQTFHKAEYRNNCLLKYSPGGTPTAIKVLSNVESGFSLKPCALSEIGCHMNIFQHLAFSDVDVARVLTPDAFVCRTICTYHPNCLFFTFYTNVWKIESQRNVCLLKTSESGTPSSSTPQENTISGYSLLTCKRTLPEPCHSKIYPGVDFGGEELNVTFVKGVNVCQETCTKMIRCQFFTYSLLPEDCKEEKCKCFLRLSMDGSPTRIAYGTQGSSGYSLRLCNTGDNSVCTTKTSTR
Format: biochemical
Source text: as §1, §2
To 0.4 ml of buffer solution (150 mM sodium chloride aqueous solution containing 50 mM Tris, pH 8.0) is added 0.1 ml of an aqueous solution of the inhibitor. After the mixture is heated for 5 minutes, 0.1 ml of kallikrein solution (containing 0.5% bovine serum albumin, No. A-8022 manufactured by Sigma Co.) is added thereto followed by reaction for 5 minutes. Further 10 mM S-2302 aqueous solution (0.1 ml) is added thereto. After reacting for 5 minutes, 5 ml of 20% acetic acid aqueous solution is added to terminate the reaction. Absorbance is measured at 405 nm and IC50 is determined according to the method described above.
`CC(=O)N[C@@H](CC(C)C)C(=O)N[C@@H](CC(C)C)C(=O)N[C@H](C=O)CCCNC(=N)N` [Example A1, acetyl-L-leucyl-L-leucyl-L-argininal, reference compound] gave an IC50 of 6.9 µM.

Same assay, conditions: Table 3; substrate S-2302, pH 8.0, 37° C.; read-out: IC50, kallikrein (Table 3)
“N-benzyloxycarbonyl-D-pyroglutamyl-L-prolyl-L-argininal hydrochloride [Example 6]” was tested, and the IC50 was 13 µM. With “N-benzyloxycarbonyl-L-pyroglutamyl-L-alanyl-L-argininal hydrochloride [Example 2]” the IC50 was 7.8 µM. In the case of “N-benzyloxycarbonyl-D-pyroglutamyl-L-leucyl-L-argininal hydrochloride [Example 7]”, the IC50 is reported as 3.1 µM. Work on `N=C(N)NCCC[C@@H](C=O)NC(=O)[C@@H]1CCCN1C(=O)[C@@H]1CCC(=O)N1` [Example 13, L-pyroglutamyl-L-prolyl-L-argininal 1/2 sulfate] ([pGlu]-Pro-Arg-aldehyde) yielded an IC50 of 5.5 µM. For “N-benzyloxycarbonyl-L-pyroglutamyl-L-prolyl-L-argininal hydrochloride [Example 1]”, the IC50 was 5 µM. “N-benzyloxycarbonyl-L-pyroglutamyl-L-phenylalanyl-L-argininal hydrochloride [Example 3]” gave an IC50 of 0.42 µM. With “N-benzyloxycarbonyl-D-pyroglutamyl-L-phenylalanyl-L-argininal hydrochloride [Example 9]” the IC50 was 0.87 µM.

Each molecule was assayed against T4, human factor Xa (Homo sapiens, UniProt P00742) (assay: Inhibitory activity against factor Xa (synthetic substrate PS-2000)). Conditions: Table 3; substrate PS-2000, pH 8.5, 37° C.
T4 construct: purchased Boehringer Mannheim
T4 sequence (P00742 235-488 limits assumed): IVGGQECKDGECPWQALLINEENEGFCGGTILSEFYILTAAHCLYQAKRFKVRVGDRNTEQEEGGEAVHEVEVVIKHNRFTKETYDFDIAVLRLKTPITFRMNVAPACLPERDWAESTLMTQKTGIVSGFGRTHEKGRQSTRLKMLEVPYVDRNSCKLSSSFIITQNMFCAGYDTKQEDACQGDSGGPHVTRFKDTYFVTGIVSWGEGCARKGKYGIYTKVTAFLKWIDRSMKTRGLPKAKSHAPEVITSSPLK
T4 sequence (P00742 41-179 partner limits assumed): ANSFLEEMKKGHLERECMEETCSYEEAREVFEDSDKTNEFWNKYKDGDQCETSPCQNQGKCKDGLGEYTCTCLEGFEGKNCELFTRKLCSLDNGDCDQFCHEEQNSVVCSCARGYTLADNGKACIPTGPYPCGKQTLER
Format: biochemical
Source text: as §1, §2
To 0.3 ml of buffer solution (150 mM sodium chloride aqueous solution containing 50 mM Tris, pH 8.5) is added 0.1 ml of an aqueous solution of the inhibitor having various concentrations. After the mixture is heated for 5 minutes, 0.1 ml of factor Xa solution (150 mM sodium chloride aqueous solution containing 50 mM Tris and 20 mM calcium chloride, pH 8.5) is added thereto and the mixture is reacted for 5 minutes. Further 5% polyvinylpyrrolidone solution (0.1 ml) containing 10 mM PS-2000 is added followed by reaction for 5 minutes. Thereafter, 2 ml of the stopping color forming solution is added. After allowing to stand for 10 minutes, absorbance is measured at 700 nm and IC50 is determined according to the method described above.
Work on “N-benzyloxycarbonyl-D-pyroglutamyl-L-prolyl-L-argininal hydrochloride [Example 6]” yielded an IC50 of 5 µM. “N-benzyloxycarbonyl-L-pyroglutamyl-L-alanyl-L-argininal hydrochloride [Example 2]” was tested, and the IC50 was 0.52 µM. For “N-benzyloxycarbonyl-D-pyroglutamyl-L-leucyl-L-argininal hydrochloride [Example 7]”, the IC50 was 4.7 µM. Work on `N=C(N)NCCC[C@@H](C=O)NC(=O)[C@@H]1CCCN1C(=O)[C@@H]1CCC(=O)N1` [Example 13, L-pyroglutamyl-L-prolyl-L-argininal 1/2 sulfate] ([pGlu]-Pro-Arg-aldehyde) yielded an IC50 of 13 µM. With “N-benzyloxycarbonyl-L-pyroglutamyl-L-prolyl-L-argininal hydrochloride [Example 1]” the IC50 was 0.36 µM. Molecule “N-benzyloxycarbonyl-L-pyroglutamyl-L-phenylalanyl-L-argininal hydrochloride [Example 3]” has an IC50 of 0.59 µM. For “N-benzyloxycarbonyl-D-pyroglutamyl-L-phenylalanyl-L-argininal hydrochloride [Example 9]”, the IC50 was 0.72 µM.
